Source: PubChem BioAssay (NCI)
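Results reflect a 48-hour exposure of cells in 96-well plates to compound at five concentrations. At the GI50, growth is halved. TGI denotes the concentration required for complete inhibition of growth.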

Key:
Test in all cases: NCI anticancer screen, dose series, 48 h
HCT-116 colon = system: HCT-116 colon
NCI/ADR-RES ovarian = system: NCI/ADR-RES ovarian
MDA-MB-231 breast = system: MDA-MB-231 breast
HCT-15 colon = system: HCT-15 colon
ACHN renal = system: ACHN renal
TK-10 renal = system: TK-10 renal
A498 renal = system: A498 renal
OVCAR-4 ovarian = system: OVCAR-4 ovarian
SK-MEL-5 melanoma = system: SK-MEL-5 melanoma
NCI-H460 lung = system: NCI-H460 lung

SMILES	GI50 (HCT-116 colon)	TGI (HCT-116 colon)	GI50 (NCI/ADR-RES ovarian)	TGI (NCI/ADR-RES ovarian)	GI50 (MDA-MB-231 breast)	TGI (MDA-MB-231 breast)	GI50 (HCT-15 colon)	TGI (HCT-15 colon)	GI50 (ACHN renal)	TGI (ACHN renal)	GI50 (TK-10 renal)	TGI (TK-10 renal)	GI50 (A498 renal)	TGI (A498 renal)	GI50 (OVCAR-4 ovarian)	TGI (OVCAR-4 ovarian)	GI50 (SK-MEL-5 melanoma)	TGI (SK-MEL-5 melanoma)	GI50 (NCI-H460 lung)	TGI (NCI-H460 lung)
O=C(/C=C/c1cccnc1)c1ccccc1	2.14 µM	5.83 µM	14.3 µM	36 µM	12.9 µM	28.3 µM	4.1 µM	20.2 µM	4.51 µM	17.1 µM	13.9 µM	27.1 µM	11.7 µM	23.9 µM	13 µM	26.5 µM	14.3 µM	27.5 µM	7.07 µM	21.2 µM
COc1ccc(/C=C/C(=O)c2ccc(B(O)O)cc2)cc1O	2.64 µM	10.1 µM	26.8 µM	> 100 µM	20.2 µM	> 85 µM	4.95 µM	> 39.3 µM	22.1 µM	> 84.7 µM	30.4 µM	> 67.6 µM	5.47 µM	21.8 µM	16.7 µM	40.3 µM	14.6 µM	37.5 µM	19.8 µM	> 83.4 µM
Fc1ccc(-c2nn3c(COc4ccccc4Cl)nnc3s2)cc1Oc1ccccc1	23.2 µM	66.1 µM	26.6 µM	76.5 µM	17.8 µM	45.6 µM	38.7 µM	> 100 µM	25 µM	65.3 µM	20.5 µM	47.1 µM	67.6 µM	> 100 µM	72.2 µM	> 100 µM	53.3 µM	> 100 µM	42.6 µM	> 100 µM
O=P1(O)c2ccccc2CSCc2ccccc21	–	> 100 µM	–	> 100 µM	–	> 100 µM	–	> 100 µM	–	> 100 µM	–	> 100 µM	–	> 100 µM	–	> 100 µM	–	> 100 µM	–	> 100 µM
CC(C)[C@]12O[C@H]1[C@@H]1O[C@]13[C@]1(O[C@H]1C[C@H]1C4=C(CC[C@@]13C)C(=O)OC4)[C@@H]2OC(=O)OC(C)(C)C	< 0.0107 µM	> 100 µM	0.0286 µM	10.5 µM	0.0543 µM	> 100 µM	0.0253 µM	> 100 µM	0.0107 µM	> 100 µM	0.0329 µM	> 100 µM	0.0145 µM	0.0454 µM	0.0273 µM	> 100 µM	0.0114 µM	0.0247 µM	< 0.01 µM	> 33.6 µM
CCOC(=O)Cc1csc(Nc2nc(O)c(C3=c4ccccc4=NC3=O)s2)n1	13.6 µM	26.5 µM	55.6 µM	> 100 µM	29.1 µM	72.1 µM	27.4 µM	> 100 µM	23 µM	47.3 µM	44.7 µM	> 100 µM	31.6 µM	77.7 µM	42.3 µM	> 100 µM	28.5 µM	> 100 µM	21.6 µM	65.2 µM
COc1cc2c3c(n(CCCNC(C)(C)CO)c(=O)c2cc1OC)-c1cc2c(cc1C3=O)OCO2	0.35 µM	1.73 µM	3.28 µM	28.3 µM	1.23 µM	7 µM	2.04 µM	16.6 µM	0.331 µM	14.3 µM	13 µM	38.6 µM	17.1 µM	40.1 µM	11.3 µM	42.1 µM	3.5 µM	13.3 µM	1.15 µM	> 69.2 µM
O=C1/C(=C\c2ccc(Cl)cc2)CN(C(=O)c2ccccc2)C/C1=C\c1ccc(Cl)cc1	0.337 µM	1.04 µM	3.59 µM	19.7 µM	2.47 µM	6.9 µM	1.86 µM	5.03 µM	2.73 µM	8.17 µM	3.59 µM	14.1 µM	23 µM	> 74 µM	2.54 µM	19.4 µM	2.39 µM	6.78 µM	5.97 µM	> 84.7 µM
CCOC(=O)c1cc2c(OC)cc(OC)cc2oc1=O	–	> 100 µM	–	> 100 µM	–	> 100 µM	–	> 100 µM	–	> 100 µM	–	> 100 µM	–	> 100 µM	–	> 100 µM	–	> 100 µM	–	> 100 µM
Cc1ccc([I+]c2ccc(C)cc2)cc1	0.821 µM	> 100 µM	> 100 µM	> 100 µM	25.1 µM	> 100 µM	59.5 µM	> 100 µM	14.9 µM	> 100 µM	6.63 µM	> 100 µM	2.28 µM	> 100 µM	7.75 µM	> 100 µM	0.79 µM	3.89 µM	3.48 µM	30.4 µM
CCN1C2=C(SC(=S)C1=C1SC(C(=O)c3ccccc3)=C(C(=O)c3ccccc3)S1)SC(=Nc1ccccc1)C2=O	2.66 µM	38.7 µM	> 73.9 µM	> 100 µM	13.6 µM	> 100 µM	> 100 µM	> 100 µM	37.3 µM	> 100 µM	13.3 µM	> 83.7 µM	28.1 µM	> 100 µM	> 100 µM	> 100 µM	> 70.8 µM	> 100 µM	27.8 µM	> 100 µM
